From PubChem BioAssay AID248 (DTP/NCI, 2004)
Inconclusive results and toxic doses are left out. Rule as the data show it: active = T/C of 150% or more; inactive = T/C below 125%.

Tested on: L1210 leukemia ip in BDF1 mice, survival T/C
Assay: NCI In Vivo Anticancer Drug Screen. Data for tumor model L1210 Leukemia (intraperitoneal) in B6D2F1 (BDF1) mice
Details: endpoint: mean survival time, higher = longer survival
Procedure, shortened: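 Ratio derived from survival: compound-dosed mice over vehicle-dosed mice, all bearing a transplantable tumor.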

[1] = dose: 25.0 mg/kg/injection, schedule: Q04DX002 (ip), vehicle: Klucel (hydroxypropylcellulose) (HPC)
[2] = dose: 50.0 mg/kg/injection, schedule: Q04DX002 (ip), vehicle: Klucel (hydroxypropylcellulose) (HPC)
[3] = dose: 100.0 mg/kg/injection, schedule: Q01DX009 (ip), vehicle: Klucel (hydroxypropylcellulose) (HPC)
[4] = dose: 200.0 mg/kg/injection, schedule: Q01DX009 (ip), vehicle: Klucel (hydroxypropylcellulose) (HPC)
[5] = dose: 400.0 mg/kg/injection, schedule: Q01DX009 (ip), vehicle: Klucel (hydroxypropylcellulose) (HPC)
[6] = dose: 100.0 mg/kg/injection, schedule: Q01DX009 (ip), vehicle: saline with Tween-80
[7] = dose: 200.0 mg/kg/injection, schedule: Q01DX009 (ip), vehicle: saline with Tween-80
[8] = dose: 100.0 mg/kg/injection, schedule: Q01DX001 (ip), vehicle: Klucel (hydroxypropylcellulose) (HPC)
[9] = dose: 200.0 mg/kg/injection, schedule: Q01DX001 (ip), vehicle: Klucel (hydroxypropylcellulose) (HPC)
[10] = dose: 100.0 mg/kg/injection, schedule: Q04DX003 (ip), vehicle: saline with Tween-80
[11] = dose: 200.0 mg/kg/injection, schedule: Q04DX003 (ip), vehicle: saline with Tween-80
[12] = dose: 400.0 mg/kg/injection, schedule: Q04DX003 (ip), vehicle: saline with Tween-80

Measured: T/C

O=c1ccc2cc(Cl)ccc2o1
inactive: dose: 50.0 mg/kg/injection, schedule: Q01DX001 (ip), vehicle: carboxymethylcellulose (CMC) 98 % of control | dose: 100.0 mg/kg/injection, schedule: Q01DX001 (ip), vehicle: carboxymethylcellulose (CMC) 98 % of control | dose: 200.0 mg/kg/injection, schedule: Q01DX001 (ip), vehicle: carboxymethylcellulose (CMC) 93 % of control | dose: 400.0 mg/kg/injection, schedule: Q01DX001 (ip), vehicle: carboxymethylcellulose (CMC) 98 % of control

CCCN(C(=O)CCl)c1ccccc1
inactive: dose: 12.5 mg/kg/injection, schedule: Q04DX002 (ip), vehicle: Klucel (hydroxypropylcellulose) (HPC) 122 % of control | [1] 94 % of control | [2] 105 % of control

CCC1CC2CN3CCc4c([nH]c5ccccc45)C(C(=O)OC)(C2)C13 (centres undefined)
inactive: dose: 75.0 mg/kg/injection, schedule: Q01DX001 (ip), vehicle: other 96 % of control | dose: 150.0 mg/kg/injection, schedule: Q01DX001 (ip), vehicle: other 105 % of control

O=C(Nc1cccc(Cl)c1Cl)Oc1ccc(F)cc1Cl
inactive: [3] 108 % of control | [4] 108 % of control | [5] 113 % of control

CCOC(=O)CCC(C)C(C)=O (centres undefined)
inactive: dose: 50.0 mg/kg/injection, schedule: Q04DX002 (ip), vehicle: saline with Tween-80 108 % of control | dose: 100.0 mg/kg/injection, schedule: Q01DX001 (ip), vehicle: saline 109 % of control | dose: 100.0 mg/kg/injection, schedule: Q04DX002 (ip), vehicle: saline with Tween-80 103 % of control | dose: 200.0 mg/kg/injection, schedule: Q01DX001 (ip), vehicle: saline 98 % of control | dose: 200.0 mg/kg/injection, schedule: Q04DX002 (ip), vehicle: saline with Tween-80 108 % of control | dose: 400.0 mg/kg/injection, schedule: Q01DX001 (ip), vehicle: saline 98 % of control

CC(=O)OC1CCC(C(C)(C)C)CC1 (centres undefined)
inactive: [6] 98 % of control | [7] 95 % of control

Cc1ccc(S(=O)(=O)N/N=C2\CCCC3CC23C)cc1 (centres undefined)
inactive: dose: 75.0 mg/kg/injection, schedule: Q04DX002 (ip), vehicle: Klucel (hydroxypropylcellulose) (HPC) 93 % of control | dose: 150.0 mg/kg/injection, schedule: Q04DX002 (ip), vehicle: Klucel (hydroxypropylcellulose) (HPC) 93 % of control | dose: 300.0 mg/kg/injection, schedule: Q04DX002 (ip), vehicle: Klucel (hydroxypropylcellulose) (HPC) 104 % of control

Cc1cc(Br)c2c(c1O)C13CCN(C)C(C2)C1CC(Br)C(=O)C3 (centres undefined)
inactive: dose: 1.56 mg/kg/injection, schedule: Q01DX001 (ip), vehicle: saline 97 % of control | dose: 3.12 mg/kg/injection, schedule: Q01DX001 (ip), vehicle: saline 100 % of control | dose: 6.25 mg/kg/injection, schedule: Q01DX001 (ip), vehicle: saline 105 % of control | dose: 12.5 mg/kg/injection, schedule: Q01DX001 (ip), vehicle: saline 108 % of control

CC(=O)CCNC1(c2ccccc2)CCCCC1
inactive: [8] 95 % of control | [9] 95 % of control

Cc1c(-c2nc(SCC(=O)NN)n[nH]2)no[n+]1[O-]
inactive: [1] 102 % of control | [2] 91 % of control | dose: 100.0 mg/kg/injection, schedule: Q04DX002 (ip), vehicle: Klucel (hydroxypropylcellulose) (HPC) 98 % of control

O=C1OC(c2ccccc2)=C/C1=C/c1ccc(Cl)cc1
inactive: dose: 25.0 mg/kg/injection, schedule: Q04DX003 (ip), vehicle: alcohol 88 % of control | dose: 50.0 mg/kg/injection, schedule: Q04DX003 (ip), vehicle: alcohol 90 % of control | dose: 100.0 mg/kg/injection, schedule: Q01DX001 (ip), vehicle: alcohol 86 % of control | dose: 100.0 mg/kg/injection, schedule: Q04DX003 (ip), vehicle: alcohol 87 % of control | dose: 150.0 mg/kg/injection, schedule: Q01DX009 (ip), vehicle: alcohol 89 % of control | dose: 150.0 mg/kg/injection, schedule: Q04DX003 (ip), vehicle: alcohol 87 % of control | dose: 225.0 mg/kg/injection, schedule: Q01DX009 (ip), vehicle: alcohol 86 % of control | dose: 225.0 mg/kg/injection, schedule: Q04DX003 (ip), vehicle: alcohol 91 % of control | dose: 335.0 mg/kg/injection, schedule: Q01DX009 (ip), vehicle: alcohol 107 % of control | dose: 335.0 mg/kg/injection, schedule: Q04DX003 (ip), vehicle: alcohol 90 % of control

COc1c(Cl)cc2c(c1OC)N(C)C1N3C(=O)C4(C)SSC3(CC21O)C(=O)N4C (centres undefined)
inactive: dose: 0.12 mg/kg/injection, schedule: Q01DX009 (ip), vehicle: Klucel (hydroxypropylcellulose) (HPC) 100 % of control | dose: 0.25 mg/kg/injection, schedule: Q01DX009 (ip), vehicle: Klucel (hydroxypropylcellulose) (HPC) 101 % of control | dose: 0.5 mg/kg/injection, schedule: Q01DX009 (ip), vehicle: Klucel (hydroxypropylcellulose) (HPC) 108 % of control | dose: 1.0 mg/kg/injection, schedule: Q01DX009 (ip), vehicle: Klucel (hydroxypropylcellulose) (HPC) 111 % of control

CCOC(=O)C(=Cc1c[nH]c2ccc(Br)cc12)C(=O)OCC
inactive: [6] 98 % of control | [10] 89 % of control | [7] 104 % of control | [11] 96 % of control | dose: 400.0 mg/kg/injection, schedule: Q01DX009 (ip), vehicle: saline with Tween-80 101 % of control | [12] 91 % of control

COC(=O)c1ccc(OC(=O)Nc2cccc(C(C)=O)c2)cc1
inactive: [3] 96 % of control | [4] 101 % of control | [5] 104 % of control

CCCC[N+](C)(CC(C)C)C1CCCCCCC1 (centres undefined)
inactive: dose: 75.0 mg/kg/injection, schedule: Q01DX001 (ip), vehicle: carboxymethylcellulose (CMC) 104 % of control | dose: 75.0 mg/kg/injection, schedule: Q01DX001 (ip), vehicle: saline 96 % of control | dose: 150.0 mg/kg/injection, schedule: Q01DX001 (ip), vehicle: saline 93 % of control

O=C1N/C(=N\OCc2ccccc2)CC(NOCc2ccccc2)N1 (centres undefined)
inactive: [10] 101 % of control | [11] 97 % of control | [12] 97 % of control

O=C(c1ccccc1)C1C(c2ccccc2)N1Cc1ccccc1 (centres undefined)
inactive: dose: 50.0 mg/kg/injection, schedule: Q04DX003 (ip), vehicle: Klucel (hydroxypropylcellulose) (HPC) 102 % of control | [8] 87 % of control | [3] 100 % of control | dose: 100.0 mg/kg/injection, schedule: Q04DX003 (ip), vehicle: Klucel (hydroxypropylcellulose) (HPC) 98 % of control | [9] 88 % of control | dose: 200.0 mg/kg/injection, schedule: Q04DX003 (ip), vehicle: Klucel (hydroxypropylcellulose) (HPC) 98 % of control | dose: 400.0 mg/kg/injection, schedule: Q01DX001 (ip), vehicle: Klucel (hydroxypropylcellulose) (HPC) 95 % of control

CCN(c1ccccc1P(c1ccccc1)c1ccccc1)c1ccccc1P(c1ccccc1)c1ccccc1
inactive: dose: 25.6 mg/kg/injection, schedule: Q04DX002 (ip), vehicle: saline with Tween-80 89 % of control | dose: 64.0 mg/kg/injection, schedule: Q04DX002 (ip), vehicle: saline with Tween-80 89 % of control | dose: 160.0 mg/kg/injection, schedule: Q04DX002 (ip), vehicle: saline with Tween-80 89 % of control | dose: 400.0 mg/kg/injection, schedule: Q04DX002 (ip), vehicle: saline with Tween-80 89 % of control

CC(C)CC(N)C(=O)CCl (centres undefined)
inactive: [1] 108 % of control | [2] 102 % of control
